Values of other authors as cited in paper PMC6777988 (ACS infectious diseases, 2018).

Columns and labels:
Cryptosporidium = conditions: immunocompromised patients and malnourished children
C. parvum = conditions: combined with partial CpCDPK1 siRNA knockdown

Compound | efficacy in patients (Cryptosporidium) | effect on proliferation of C. parvum parasites (C. parvum)
CC(=O)Oc1ccccc1C(=O)Nc1ncc([N+](=O)[O-])s1 [Nitazoxanide, nitazoxanide] | minimal efficacy | 
CCOc1ccc2cc(-c3nn(C(C)(C)C)c(N)c3C(N)=O)cnc2c1 [Compound 1517] |  | further inhibitory effects
CCOc1ccc2cc(-c3nn(CC4CCN(C)CC4)c4ncnc(N)c34)ccc2c1 [Compound 1294] |  | further inhibitory effects
